“Also recorded” adds a separate entry of the source. Where two headings read alike, the source gives them in different places. Where no end group is shown, it is not given here.
Assays:
human islets [1] = assay: Glucose-stimulated insulin secretion (GSIS) assay, human islets; assay type: cell-based; settings: for GSIS response / insulin secretion compared to C-95 peptide: human islets, 1 μM peptide overnight, 28 mM glucose
Procedure: (§1) Human islet cells were similarly incubated with a N-94 peptide or C-95 peptide for varying periods of time following which GSIS assay and viability measurements were conducted. Insulin was measured using Insulin ELISA kit (Mercodia, Uppsala, Sweden).
(§2) Human islet cells were incubated overnight with 1 μM N-94 peptide (SEQ ID NO: 1), N-94/C6 peptide (SEQ ID NO: 62), N104 peptide, Tearpep3 peptide (SEQ ID NO: 21), Tearpep3/C6 peptide (SEQ ID NO: 33), C-95 peptide, or no treatment followed by GSIS assays (se FIG. 2A for the structures of, and Table 2 for the sequences of, these exemplary peptides). C57BL/6 islet cells were pretreated with 4 μM N-94 N-94 peptide or C-95 peptide or saline for 24 hours followed by minimal islet mass transplantation into syngeneic diabetic recipients. Tail vein blood glucoses were measured daily.
(§3) 50 human islets were incubated with N-94 peptide or C-95 peptide for 1, 3, 4, 6 and 9 days following which GSIS assay and viability measurement were conducted. Insulin was measured using Insulin ELISA kit (Mercodia).
Human islets were incubated overnight with 1 μM N-94 peptide, N-94/C6 peptide, N104 peptide, Tearpep3 peptide, Tearpep3/C6 peptide, C-95 peptide, or no treatment and GSIS assay performed.

human islets [2] = assay: Viability of cultured human islets; assay type: cell-based
Procedure: as §1, §3
Human islets were treated with various peptides of the presently disclosed subject matter and viability was assessed at twenty days post-treatment.

C57BL/6 islets [3] = assay type: cell-based, mouse; settings: for viability of islets: C57BL/6, mouse, 4 μM; for mouse islet viability (in words): isolated mouse pancreatic islets, 4 μM peptide, in vitro
Procedure: C57BL/6 islets (see FIG. 3) were cultured with 4 μM N-94 (N-94) peptide or control peptide C-95 for different time periods ranging from 1-15 days in DMEM at 37° C. Viability of islets was scored by propidium iodide-fluorescein diacetate staining. 35 C57BL/6 islets/per well were cultured with 4 μM of N-94 peptide analog N-94 or control C-95 peptide for 1, 2, 5, 7,10 or 15 days in DMEM at 37° C. Viability of islets was scored after staining with PI/FDA. Islets cultured with N-94 peptide retained 95±3, 89±15, 80±17.5 and 61±21% viability while islets cultured with C-95 peptide retained 95±3, 87±13, 40±28 and 20±19% viability at Day 1, 5, 10 and 15.

C57BL/6 islets [4] = assay: Glucose-stimulated insulin secretion (GSIS) assay, mouse islets; assay type: cell-based; settings: for insulin secreted in GSIS assay: 50 islets/well, high glucose (28 mM); for GSIS: mouse islet cells
Procedure: C57BL/6 islets were also incubated overnight with 4 μM N-94 peptide (SEQ ID NO: 1) or C-95 peptide or no additive following which Glucose-stimulated Insulin secretion (GSIS) assays were performed.
C57BL/6 islets were incubated overnight with 4 μM N-94 peptide or C-95 peptide or no additive. 50 islets/well were used to perform Glucose stimulated Insulin secretion (GSIS) assay. Islets that were untreated or treated with C-95 peptide or with N-94 peptide and stimulated with high glucose (28 mM) secreted 39.86±7.81, 54.9±18.14, and 91±22.16 ng/ml Insulin. N-94 peptide increased insulin secretion by 2-fold compared to untreated control. Viability of human islets incubated with N-94 peptide at Day 1, 3, 4, 6, and 9 was 95±4, 95±3, 94±4, 84±9, and 80±15% while with C-95 it was 94±4, 91±7, 88±8, 66±16, and 65±18%. With saline it was 94±4, 94±3, 88±8, 58±19, and ˜53. While GSIS results were similar to the mouse results, maximum insulin secretion activity with N-94 peptide was only observed on Day 1 and 3.

[5] = test system: C57BL/6 mice made diabetic by single streptozotocin injection; assay: Minimal islet mass transplantation of peptide-pretreated islets into streptozotocin-diabetic mice, blood glucose; assay type: in vivo, mouse
Procedure: as §2
75 C57Bl/6 islets were transplanted into C57BL/6 recipients made diabetic by single STZ injection (220 mg/Kg). Islets were pretreated with 4 μM N-94 peptide or C-95 peptide or saline for 24 hours prior to transplantation into diabetic mice (n=2 mice/group). Tail vein blood glucoses were measured daily. Incubation of islets with N-94 peptide permanently returned transplanted mice to normoglycemia with glucoses below 200 mg/dL within 9 days posttransplant. With C-95 peptide treatment, the glucose at Day 12 posttransplant was <250 mg/dL. Mice transplanted with untreated islets remained diabetic.
FIG. 4 is a graph of blood glucose levels of pancreatic islets treated with the indicated peptides and transplanted into diabetic mice observed for 60 days. Shown is a graph of blood glucose levels after minimal transplantation of 75 N-94 peptide-treated, C-95 peptide-treated, or saline-treated C57Bl/6 islets under the kidney capsule of C57BL/6 mice made diabetic before transplantation by single streptozotocin injection (220 mg/kg; two mice per group). Pretreatment was for 24 hours. Tail vein blood was collected daily for glucose analyses. Each line represents the progressive blood glucose level of a single diabetic mouse. Six mice each received N-94 peptide treated islets (black), six others received C-95 peptide treated islets (blue), and four received saline treated islets (orange). N-94 peptide permanently returned transplanted mice to normoglycemia with glucose below 200 mg/dL within 9 days post-transplantation with treatment efficacy continuing after 40 days post-transplantation. With C-95 peptide treatment, the glucose at Day 12 post-transplant was <250 mg/dL. Average blood glucoses measured between Days 22 to 43 were 142.9±17.6 mg/dL for the N-94 group compared to 275±34.8 mg/dL for the C-95 peptide group.

human sensory neurons = assay: Viability of iPSC-derived sensory neurons stressed with inflammatory cytokines (Alamar Blue); assay type: cell-based; settings: day 21 neurons, IFN-γ (1000 U/mL)+TNF-α (100 ng/mL), 1 mM peptide, 72 hours
Procedure: Whether the peptides of the presently disclosed subject matter could enhance viability of human sensory neurons stressed with inflammatory cytokines was tested. Sensory neurons were derived from Induced Pluripotent Stem Cells (iPSC). iPSCs were seeded into 12 well Matrigel-coated plates (1.25×10^5 cells/well). Neural differentiation was initiated when cells were confluent using KSR medium. 100 nM of LDN-193189 and […] of SB431542 were added to the culture from day 0 to 6, to inhibit SMAD signaling. On day 4, 25% of N2 medium was added to the culture, with 100% of N2 medium at day 10. Sensory neurons induction was initiated at day 2 (day 2-10), with the addition of […] CHIR 99021, […] SU5402, and […] DAPT. From day 10 to day 21 neuron maturation was promoted with 25 ng/mL of β-NGF, BDNF, and GDNF. Cells were fed every day.
Sensory neurons (day 21) were incubated with IFN-g (1000 U/mL)+TNF-α (100 ng/mL) with or without 1 mM of the N-94/C-6 peptide or the negative control C-95 peptide for 72 hours in a 96-well plate. Alamar Blue reagent (10%) was added in each well. Fluorescence was measured after 6 hours (excitation at 545 nm/emission at 590 nm).

[6] = C57BL/6 islets, 4 μM peptide overnight
[7] = 75 islets pretreated 24 hours with 4 μM peptide, STZ-diabetic C57BL/6 mice

Sequence	GSIS response / insulin secretion compared to C-95 peptide (human islets [1])	viability of islets (C57BL/6 islets [3]; 1 days) [%]	viability of islets (C57BL/6 islets [3]; 5 days) [%]	viability of islets (C57BL/6 islets [3]; 10 days) [%]	viability of islets (C57BL/6 islets [3]; 15 days) [%]	mouse islet viability (in words) (C57BL/6 islets [3])	insulin secreted in GSIS assay (C57BL/6 islets [4]; [6]) [ng/mL]	GSIS (C57BL/6 islets [4]; 4 μM peptide overnight) [ng/mL]	viability of human islets (human islets [2]; 1 days) [%]	viability of human islets (human islets [2]; 3 days) [%]	viability of human islets (human islets [2]; 4 days) [%]	viability of human islets (human islets [2]; 6 days) [%]	viability of human islets (human islets [2]; 9 days) [%]	average blood glucose between Days 22 to 43 [5, 7] [mg/dL]	also measured
AQKLLKKFSLLKPWA [N-104]	~3.5 fold	–	–	–	–	–	–	–	–	–	–	–	–	–	rank of activity in glucose-dependent insulin secretion assay (human islets [1]; 100 human islets, 1 μM peptide, 24 hours): Most active
GKNRRKNWHAQLFVL [Tearpep3/N-104]	–	–	–	–	–	–	–	–	–	–	–	–	–	–	viability of human islets twenty days after isolation (in words) (human islets [2]; human islets, 4 μM peptide, versus 4 μM Tearpep3/C-6 and lacritin N-94): superior viability
EDASSDSTGADPAQEAGTSKPNEE [C-95, reference compound]	–	95±3	87±13	40±28	20	not	54.9 ± 18.14	54.9 ± 18.1	94±4	91±7	88±8	66	65±18	275 ± 34.8	blood glucose at Day 12 posttransplant [5, 7]: < 250 mg/dL
KQFIENGSEFAQKLLKKFS [N-94/C-6, fragment of lacritin]	–	–	–	–	–	–	–	–	–	–	–	–	–	–	viability of stressed human sensory neurons (in words) (human sensory neurons): restored viability
KQFIENGSEFAQKLLKKFSLLKPWA [N-94]	near doubling; also recorded: nearly doubled	95±3	89±15	80±17.5	61	promotes mouse islet viability	91 ± 22.16	91 ± 22	95±4	95±3	94±4	84	80±15	142.9 ± 17.6	increase of GSIS / insulin secretion compared to untreated (C57BL/6 islets [4]; C57BL/6 islets, 4 μM peptide overnight, high glucose): ~2 fold; glucose-dependent insulin secretion (in words) (C57BL/6 islets [4]; isolated mouse pancreatic islets, 4 μM peptide, treatment 24 hours after islet isolation): promotes; time to normoglycemia (glucose below 200 mg/dL) posttransplant [5, 7]: ≤ 9 days; treatment efficacy continuing posttransplant [5, 7]: > 40 days; blood glucose on return to normoglycemia ([5]; 75 islets pretreated 24 hours with 4 μM peptide, transplanted into STZ-diabetic C57BL/6 mice, within 9 days posttransplant): below 200 mg/dL; effect of peptide-pretreated islet transplant on diabetes (in words) ([5]; pretreated islets transplanted into streptozotocin diabetic mice): rapidly restores normoglycemia; also recorded: reverse disease

Reference: US12233108B2, “Compositions and methods for promoting islet viability and enhancing insulin secretion” (University of Virginia Patent Foundation, priority 2019, dated 2025)
